According to patent US10570129B2 (Zoetis Services LLC, priority 2015, dated 2020):

What was measured:
[1] = tested on: D. immitis microfilariae; assay: Dirofilaria immitis, microfilariae (DiMF) in vitro motility assay; type: cell-based; conditions: for minimal effective concentration: Dirofilaria immitis, 72 h, read-out: DiMF minimally effective dose (MEC)
[2] = tested on: Haemonchus contortus L3; assay: microbe, parasite or virus in culture; type: cell-based; conditions: for minimal effective concentration: Haemonchus contortus, 96 h, read-out: HcL3 Minimal Effective Concentration (MEC)

Compound: N#Cc1ccc2c(c1)c1c(n2C(=O)NCc2ccnc(Cl)c2)CCN(C/C=C/c2cc(Br)ccc2F)C1 [Example 78, (E)-2-(3-(5-bromo-2-fluorophenyl)allyl)-N-((2-chloropyridin-4-yl)methyl)-8-cyano-1,2,3,4-tetrahydro-5H-pyrido[4,3-b]indole-5-carboxamide]
- minimal effective concentration [1]: > 100 µM
- minimal effective concentration [2]: 0.6 µM

Compound: N#Cc1ccc2c(c1)c1c(n2C(=O)NCc2ccnc(Cl)c2)CCN(C/C=C/c2c(F)c(F)c(Cl)c(F)c2F)C1 [Example 84, (E)-2-(3-(4-chloro-2,3,5,6-tetrafluorophenyl)allyl)-N-((2-chloropyridin-4-yl)methyl)-8-cyano-1,2,3,4-tetrahydro-5H-pyrido[4,3-b]indole-5-carboxamide]
- minimal effective concentration [1]: > 100 µM
- minimal effective concentration [2]: 0.1 µM

Compound: O=C(NCc1ccnc(Cl)c1)n1c2c(c3ccc(OC(F)(F)F)cc31)CN(C/C=C/c1ccc(F)cc1Cl)CC2 [Example 346, (E)-2-(3-(2-chloro-4-fluorophenyl)allyl)-N-((2-chloropyridin-4-yl)methyl)-7-(trifluoromethoxy)-1,2,3,4-tetrahydro-5H-pyrido[4,3-b]indole-5-carboxamide]
- minimal effective concentration [1]: 1.8 µM
- minimal effective concentration [2]: 0.5 µM

Compound: (E)-9-chloro-2-(3-(4-chlorophenyl)allyl)-N-((2-chloropyridin-4-yl)methyl)-8-fluoro-1,2,3,4-tetrahydro-5H-pyrido[4,3-b]indole-5-carboxamide [Example 318]
- DiMF minimally effective dose (MEC) ([1]; decrease in microfilariae motility by subjective visual assessment, observed at 72 hours): 5.7 µM
- HcL3 Minimal Effective Concentration (MEC) [2]: 3.3 µM

Compound: O=C(NCc1ccnc(Cl)c1)n1c2c(c3ccc(OC(F)(F)F)cc31)CN(Cc1cc3ccc(Cl)cc3cn1)CC2 [Example 365, 2-((7-chloroisoquinolin-3-yl)methyl)-N-((2-chloropyridin-4-yl)methyl)-7-(trifluoromethoxy)-1,2,3,4-tetrahydro-5H-pyrido[4,3-b]indole-5-carboxamide]
- minimal effective concentration [1]: 4.4 µM
- minimal effective concentration [2]: > 100 µM

Compound: O=C(NCc1ccnc(F)c1)n1c2c(c3cc(C4CC4)ccc31)CN(C/C=C/c1ccc(Cl)cc1)CC2 [Example 501, (E)-2-(3-(4-chlorophenyl)allyl)-8-cyclopropyl-N-((2-fluoropyridin-4-yl)methyl)-1,2,3,4-tetrahydro-5H-pyrido[4,3-b]indole-5-carboxamide]
- minimal effective concentration [1]: 18.2 µM
- minimal effective concentration [2]: 3.3 µM

Compound: O=C(NCc1ccnc(Cl)c1)n1c2c(c3cc(OC(F)(F)F)ccc31)CN(C/C=C/c1ccc(F)cc1)CC2 [Example 393, (E)-N-((2-chloropyridin-4-yl)methyl)-2-(3-(4-fluorophenyl)allyl)-8-(trifluoromethoxy)-1,2,3,4-tetrahydro-5H-pyrido[4,3-b]indole-5-carboxamide]
- minimal effective concentration [1]: 1.5 µM
- minimal effective concentration [2]: 0.4 µM

Compound: O=C(NCc1ccnc(Cl)c1)n1c2c(c3cc(C(F)(F)F)ccc31)CN(C/C=C/c1ccc(Cl)c(Cl)c1)CC2 [Example 333, (E)-N-((2-chloropyridin-4-yl)methyl)-2-(3-(3,4-dichlorophenyl)allyl)-8-(trifluoromethyl)-1,2,3,4-tetrahydro-5H-pyrido[4,3-b]indole-5-carboxamide]
- minimal effective concentration [1]: > 100 µM
- minimal effective concentration [2]: 1.8 µM

Compound: N#Cc1ccc(/C=C/CN2CCc3c(c4cc(Cl)ccc4n3C(=O)NCc3ccnc(Cl)c3)C2)cc1F [Example 235, (E)-8-chloro-N-((2-chloropyridin-4-yl)methyl)-2-(3-(4-cyano-3-fluorophenyl)allyl)-1,2,3,4-tetrahydro-5H-pyrido[4,3-b]indole-5-carboxamide]
- minimal effective concentration [1]: > 100 µM
- minimal effective concentration [2]: 0.1 µM

Compound: O=C(NCc1ccnc(F)c1)n1c2c(c3cc(Cl)ccc31)CN(C/C=C/c1ccc(F)cc1F)CC2 [Example 257, (E)-8-chloro-2-(3-(2,4-difluorophenyl)allyl)-N-((2-fluoropyridin-4-yl)methyl)-1,2,3,4-tetrahydro-5H-pyrido[4,3-b]indole-5-carboxamide]
- minimal effective concentration [1]: 5.7 µM
- minimal effective concentration [2]: 0.2 µM

Compound: N#Cc1ccc2c3c(n(C(=O)NCc4ccnc(Cl)c4)c2c1)CCN(C/C=C/c1ccc(Br)c(F)c1)C3 [Example 8, (E)-2-(3-(4-bromo-3-fluorophenyl)allyl)-N-((2-chloropyridin-4-yl)methyl)-7-cyano-1,2,3,4-tetrahydro-5H-pyrido[4,3-b]indole-5-carboxamide]
- minimal effective concentration [1]: 18.2 µM
- minimal effective concentration [2]: 0.5 µM

Compound: O=C(NCc1ccnc(Cl)c1)n1c2c(c3cc(Cl)c(Cl)cc31)CN(C/C=C/c1ccc(F)c(F)c1)CC2 [Example 278, (E)-7,8-dichloro-N-((2-chloropyridin-4-yl)methyl)-2-(3-(3,4-difluorophenyl)allyl)-1,2,3,4-tetrahydro-5H-pyrido[4,3-b]indole-5-carboxamide]
- minimal effective concentration [1]: 18.2 µM
- minimal effective concentration [2]: 1.8 µM

Compound: O=C(NCc1ccnc(Cl)c1)n1c2c(c3cc(Cl)ccc31)CN(C/C=C/c1ccc(Cl)cc1)CC2 [Example 242, (E)-8-chloro-2-(3-(4-chlorophenyl)allyl)-N-((2-chloropyridin-4-yl)methyl)-1,2,3,4-tetrahydro-5H-pyrido[4,3-b]indole-5-carboxamide]
- minimal effective concentration [1]: 10 µM
- minimal effective concentration [2]: 0.7 µM

Compound: N#Cc1ccc(/C=C/CN2CCc3c(c4cc(F)ccc4n3C(=O)NCc3ccnc(Cl)c3)C2)cc1 [Example 168, (E)-N-((2-chloropyridin-4-yl)methyl)-2-(3-(4-cyanophenyl)allyl)-8-fluoro-1,2,3,4-tetrahydro-5H-pyrido[4,3-b]indole-5-carboxamide]
- minimal effective concentration [1]: 10 µM
- minimal effective concentration [2]: 0.5 µM

Compound: O=C(NCc1cnc(Cl)s1)n1c2c(c3c(OC(F)(F)F)cccc31)CN(C/C=C/c1ccc(Cl)cc1)CC2 [Example 383, (E)-2-(3-(4-chlorophenyl)allyl)-N-((2-chlorothiazol-5-yl)methyl)-9-(trifluoromethoxy)-1,2,3,4-tetrahydro-5H-pyrido[4,3-b]indole-5-carboxamide]
- minimal effective concentration [1]: 5.7 µM
- minimal effective concentration [2]: > 100 µM

Compound: COc1ccc(/C=C/CN2CCc3c(c4c(Cl)cccc4n3C(=O)NCc3ccnc(Cl)c3)C2)cc1 [Example 220, (E)-9-chloro-N-((2-chloropyridin-4-yl)methyl)-2-(3-(4-methoxyphenyl)allyl)-1,2,3,4-tetrahydro-5H-pyrido[4,3-b]indole-5-carboxamide]
- minimal effective concentration [1]: 10 µM
- minimal effective concentration [2]: 3.3 µM

Compound: O=C(NCc1ccnc(Cl)c1)n1c2c(c3ccc(OC(F)(F)F)cc31)CN(Cc1ccc3nc(Cl)ccc3c1)CC2 [Example 367, N-((2-chloropyridin-4-yl)methyl)-2-((2-chloroquinolin-6-yl)methyl)-7-(trifluoromethoxy)-1,2,3,4-tetrahydro-5H-pyrido[4,3-b]indole-5-carboxamide]
- minimal effective concentration [1]: > 100 µM
- minimal effective concentration [2]: 10 µM

Compound: O=C(NCc1ccnc(F)c1)n1c2c(c3cc(F)c(Cl)cc31)CN(C/C=C/c1ccc(F)cc1F)CC2 [Example 312, (E)-7-chloro-2-(3-(2,4-difluorophenyl)allyl)-8-fluoro-N-((2-fluoropyridin-4-yl)methyl)-1,2,3,4-tetrahydro-5H-pyrido[4,3-b]indole-5-carboxamide]
- minimal effective concentration [1]: 1 µM
- minimal effective concentration [2]: 0.1 µM

Compound: O=C(NCc1ccnc(Cl)c1)n1c2c(c3ccc(OC(F)(F)F)cc31)CN(C/C=C/c1ccc(F)c(Cl)c1)CC2 [Example 348, (E)-2-(3-(3-chloro-4-fluorophenyl)allyl)-N-((2-chloropyridin-4-yl)methyl)-7-(trifluoromethoxy)-1,2,3,4-tetrahydro-5H-pyrido[4,3-b]indole-5-carboxamide]
- minimal effective concentration [1]: 24.5 µM
- minimal effective concentration [2]: 1 µM

Compound: O=C(NCc1ccc(F)cc1)n1c2c(c3cc(F)ccc31)CN(C/C=C/c1ccc(Cl)cc1)CC2 [Example 170, (E)-2-(3-(4-chlorophenyl)allyl)-8-fluoro-N-(4-fluorobenzyl)-1,2,3,4-tetrahydro-5H-pyrido[4,3-b]indole-5-carboxamide]
- minimal effective concentration [1]: 1 µM
- minimal effective concentration [2]: > 100 µM

Compound: O=C(NCc1ccnc(F)c1)n1c2c(c3cc(Cl)ccc31)CN(C/C=C/c1ccc(Cl)cc1)CC2 [Example 260, (E)-8-chloro-2-(3-(4-chlorophenyl)allyl)-N-((2-fluoropyridin-4-yl)methyl)-1,2,3,4-tetrahydro-5H-pyrido[4,3-b]indole-5-carboxamide]
- minimal effective concentration [1]: 10 µM
- minimal effective concentration [2]: 0.4 µM

Compound: N#Cc1ccc2c(c1)c1c(n2C(=O)NCc2ccnc(F)c2)CCN(C/C=C/c2ccc(Cl)cc2Cl)C1 [Example 101, (E)-8-cyano-2-(3-(2,4-dichlorophenyl)allyl)-N-((2-fluoropyridin-4-yl)methyl)-1,2,3,4-tetrahydro-5H-pyrido[4,3-b]indole-5-carboxamide]
- minimal effective concentration [1]: 24 µM
- minimal effective concentration [2]: 0.2 µM

Compound: O=C(NCc1ccnc(Cl)c1)n1c2c(c3c(C(F)(F)F)cccc31)CN(C/C=C/c1ccc(C(F)(F)F)cc1)CC2 [Example 162, (E)-N-((2-chloropyridin-4-yl)methyl)-9-(trifluoromethyl)-2-(3-(4-(trifluoromethyl)-phenyl)allyl)-1,2,3,4-tetrahydro-5H-pyrido[4,3-b]indole-5-carboxamide]
- minimal effective concentration [1]: 10 µM
- minimal effective concentration [2]: > 100 µM

Compound: O=C(NCc1ccnc(Cl)c1)n1c2c(c3ccc(OC(F)(F)F)cc31)CN(C/C=C/c1ccc(Cl)c(Cl)c1)CC2 [Example 355, (E)-N-((2-chloropyridin-4-yl)methyl)-2-(3-(3,4-dichlorophenyl)allyl)-7-(trifluoromethoxy)-1,2,3,4-tetrahydro-5H-pyrido[4,3-b]indole-5-carboxamide]
- minimal effective concentration [1]: 69.1 µM
- minimal effective concentration [2]: 1 µM

Compound: O=C(NCc1ccnc(Cl)c1)n1c2c(c3cc(F)c(OC(F)(F)F)cc31)CN(C/C=C/c1ccc(F)cc1)CC2 [Example 471, (E)-N-((2-chloropyridin-4-yl)methyl)-8-fluoro-2-(3-(4-fluorophenyl)allyl)-7-(trifluoromethoxy)-1,2,3,4-tetrahydro-5H-pyrido[4,3-b]indole-5-carboxamide]
- minimal effective concentration [1]: 10 µM
- minimal effective concentration [2]: 0.3 µM
